In paper PMC12381718 (2025):

Experiments:
[1] = tested on: ds26 (DNA, duplex) CAATCGGATCGAATTCGATCCGATTG; test: CD titration; settings: K+ (100 mM potassium phosphate); 100 mM KPhos pH 7.4, 20 °C; 5 µM DNA; weak Ka seen by UV-visible
[2] = tested on: ds26 (DNA, duplex) CAATCGGATCGAATTCGATCCGATTG; test: UV-visible titration; settings: K+ (100 mM potassium phosphate), 100 mM KPhos pH 7.4, ambient temperature, 10 µM ligand, apparent

Row | Structure (SMILES) | binding [1] | Ka ([2]; continuous 405 nm irradiation) | Ka [2]
1 | C[n+]1ccc(-c2ccc3c(c2)CCc2cc(-c4cc[n+](C)cc4)ccc2/N=N/3)cc1 | no | 2.44 × 10^3 M^–1 | –
2 | C[n+]1ccc(-c2ccc3c(c2)CCc2cc(-c4cc[n+](C)cc4)ccc2/N=N\3)cc1 | – | – | 2.53 × 10^3 M^–1
